Reference: patent US20230123334A1, “AMINO LIPID COMPOUND, PREPARATION METHOD THEREFOR, AND APPLICATION THEREOF” (SHENZHEN SHENXIN BIOTECHNOLOGY CO., LTD., priority 2020, published 2023)

Assays:
[1] = system: HEK293 cells; test: Preliminary screening as DNA vectors, GFP transfection of HEK293 cells; format: cell-based; details: HEK293 cells; lipid/DOPE liposome with 75 ng plasmid DNA (psin-EGFP-IRES-Puro); number of cells expressing GFP divided by total number of nuclei (Hoechst)
Outline: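 HEK293 cells in DMEM/10% FBS transfected with 75 ng EGFP plasmid per well complexed with amino lipid/DOPE liposomes in pH 5.6 sodium acetate. Hoechst nuclear stain added 20-24 h post-transfection, then cells cultured another 20-24 h. Confocal imaging gives GFP-positive cells as % of total nuclei.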

[2] = system: HEK293 cells; test: Preliminary screening as mRNA vectors, EGFP mRNA transfection of HEK293 cells; format: cell-based; details: HEK293 cells, 96-well plates, EGFP mRNA 50 ng per well; percentage of GFP fluorescent cells relative to total number of cells (Hoechst)
Outline: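 HEK293 cells in DMEM plus 10% FBS transfected in 96-well format with 50 ng EGFP mRNA per well; Lipofectamine2000 served as positive control. Read-out is the percentage of GFP-fluorescent cells among total cells, counted by Hoechst nuclear stain.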

| SMILES | Absolute DNA transfection efficiency in HEK293 cells [1] | Absolute mRNA transfection efficiency in HEK293 cells [2] |
| --- | --- | --- |
| CCCCCCCCCCCCCCCSc1nc(NCCN2CCCCC2)nc(SCCCCCCCCCCCCCC)n1 [Compound S14S15D4] | 0.7% | 0.1% |
| CCCCCCCCCCCCCCCCNc1nc(NCCCCCCCC)nc(NCCN2CCN(C)CC2)n1 [Compound N8N16D5] | 0.2% | 0.3% |
| CCCCCCCCCCCCCCCCCCSc1nc(NCCCN2CCN(C)CC2)nc(SCCCCCCCCCCC)n1 [Compound S11S18D9] | 0.9% | 0.3% |
| CCCCCCCCCCCCCCCCCCNc1nc(NCCCCCCCCCCCC)nc(NCCCN(C)C)n1 [Compound N12N18D6] | 1.5% | 4.8% |
| CCCCCCCNc1nc(NCCCCCCC)nc(NCCN(CC)CC)n1 [Compound N7N7D7] | 0.0% | 0.0% |
| CCCCCCCCCCCCCCCCNc1nc(NCCCCCCC)nc(NCCN2CCN(C)CC2)n1 [Compound N7N16D5] | 0.3% | 0.0% |
| CCCCCCCCCCCCCCCCNc1nc(NCCCCCC)nc(NCCCN(C)C)n1 [Compound N6N16D6] | 0.2% | 0.4% |
| CCCCCCCCCCCCCCCNc1nc(NCCCCCCC)nc(NCC2CCN(C)CC2)n1 [Compound N7N15D10] | 0.6% | 2.5% |
| CCCCCCCCCCCCCCCCSc1nc(NCCN(CC)CC)nc(SCCCCCCCCCCCC)n1 [Compound S12S16D7] | 0.7% | 0.0% |
| CCCCCCCCCCCCNc1nc(NCCCCCC)nc(NCCCN2CCN(C)CC2)n1 [Compound N6N12D9] | 0.0% | 0.0% |
| CCCCCCCCCCCCCCCSc1nc(NCCN2CCCCC2)nc(SCCCCCCCC)n1 [Compound S8S15D4] | 11.2% | 2.6% |
| CCCCCCCCCCCCCNc1nc(NCCN2CCN(C)CC2)nc(N(CCCCCCCCCCCC)CCCCCCCCCCCC)n1 [N13^2N12D5] | 0.0% | 4.9% |
| CCCCCCCCCCCCCCCCNc1nc(NCCCCCCCCCCCCCCCC)nc(NCCN(C)C)n1 [Compound N16N16D1] | 1.3% | 9.5% |
| CCCCCCCCCCCCCCCCCCNc1nc(NCCCCCCCC)nc(NCC2CCN(C)CC2)n1 [Compound N8N18D10] | 1.4% | 5.0% |
| CCCCCCCCNc1nc(NCCCCCCC)nc(NCCN(CC)CC)n1 [Compound N7N8D7] | 0.0% | 0.0% |
| CCCCCCCCCCCNc1nc(NCCCCCCC)nc(NCC2CCN(C)CC2)n1 [Compound N7N11D10] | 0.7% | 0.2% |
| CCCCCCCCCCCCNc1nc(NCCCCCCCCC)nc(NCC2CCN(C)CC2)n1 [Compound N9N12D10] | 0.0% | 0.4% |
| CCCCCCCCCCCCN(CCCCCCCCCCCC)c1nc(NCCCCCCCCC)nc(NCCN2CCCCC2)n1 [N9^2N12D4] | 0.0% | 0.4% |
| CCCCCCCCCCCCCNc1nc(NCCCCCCCCCCCCC)nc(NCCCN2CCOCC2)n1 [Compound N13N13D8] | 1.4% | 0.3% |
| CCCCCCCCCCCCCNc1nc(NCCCCCCCC)nc(NCCCN(C)C)n1 [Compound N8N13D6] | 0.0% | 0.0% |
| CCCCCCCCCCCCNc1nc(NCCCN2CCOCC2)nc(N(CCCCCCCCCCCC)CCCCCCCCCCCC)n1 [N12^2N12D8] | 0.6% | 3.2% |
| CCCCCCCCCCCCCCCCCCNc1nc(NCCCCCCCCCCCC)nc(NCCN2CCOCC2)n1 [Compound N12N18D2] | 0.6% | 0.9% |
| CCCCCCCCCCCCCCCCNc1nc(NCCCCCCCCC)nc(NCCCN2CCOCC2)n1 [Compound N9N16D8] | 1.8% | 0.0% |
| CCCCCCCCCCCCCCSc1nc(NCC2CCN(C)CC2)nc(SCCCCCCCC)n1 [Compound S8S14D10] | 41.1% | 60.5% |

| SMILES | Absolute DNA transfection efficiency in HEK293 cells [1] | Absolute mRNA transfection efficiency in HEK293 cells [2] |
| --- | --- | --- |
| CCCCCCCCCCCCCCCCNc1nc(NCCCCCCCCC)nc(NCCN2CCN(C)CC2)n1 [Compound N9N16D5] | 0.0% | 0.0% |
| CCCCCCCCCCCCCCCNc1nc(NCCN2CCCC2)nc(N(CCCCCCCCCCCC)CCCCCCCCCCCC)n1 [N15^2N12D3] | 2.4% | 0.0% |
| CCCCCCCCCCCCCCSc1nc(NCCCN2CCOCC2)nc(SCCCCCCCCCC)n1 [Compound S10S14D8] | 18.9% | 7.5% |
| CCCCCCCCCCCCCCCCCCNc1nc(NCCCCCC)nc(NCCCN2CCN(C)CC2)n1 [Compound N6N18D9] | 0.1% | 0.2% |
| CCCCCCCCNc1nc(NCCCCCCC)nc(NCC2CCN(C)CC2)n1 [Compound N7N8D10] | 0.0% | 0.6% |
| CCCCCCCCCCCCCCCCCCSc1nc(NCCCN(C)C)nc(SCCCCCCCCCC)n1 [Compound S10S18D6] | 22.4% | 19.9% |
| CCCCCCCCCCCCNc1nc(NCC2CCN(C)CC2)nc(N(CCCCCCCCCCCC)CCCCCCCCCCCC)n1 [N12^2N12D10] | 0.7% | 0.9% |
| CCCCCCCCCCCCNc1nc(NCCCCCC)nc(NCCCN(C)C)n1 [Compound N6N12D6] | 0.3% | 0.1% |
| CCCCCCCCCCCCSc1nc(NCCN2CCN(C)CC2)nc(SCCCCCCCCCC)n1 [Compound S10S12D5] | 9.8% | 33.5% |
| CCCCCCCCCCCCNc1nc(NCCCCCC)nc(NCCN(C)C)n1 [Compound N6N12D1] | 0.0% | 0.2% |
| CCCCCCCCCCCCCCCNc1nc(NCCCCCCCCCCCC)nc(NCCN2CCCCC2)n1 [Compound N12N15D4] | 1.4% | 1.3% |
| CCCCCCCCCCCCCNc1nc(NCCCCCC)nc(NCCCN2CCOCC2)n1 [Compound N6N13D8] | 0.0% | 0.0% |
| CCCCCCCCCCCSc1nc(NCC2CCN(C)CC2)nc(SCCCCCCCCCCC)n1 [Compound S11S11D10] | 12.2% | 13.7% |
| CCCCCCCCCCCCNc1nc(NCCCCCCCCCCC)nc(NCCN2CCN(C)CC2)n1 [Compound N11N12D5] | 0.0% | 8.0% |
| CCCCCCCCCCCCCCCCSc1nc(NCCCN2CCN(C)CC2)nc(SCCCCCCCCCCCC)n1 [Compound S12S16D9] | 0.5% | 0.0% |
| CCCCCCCCCCCCNc1nc(NCCCCCCCC)nc(NCCN2CCN(C)CC2)n1 [Compound N8N12D5] | 0.6% | 0.9% |
| CCCCCCCCCCCCCCCCNc1nc(NCCCCCCCCCCCCCCC)nc(NCCCN(C)C)n1 [Compound N15N16D6] | 0.8% | 1.3% |
| CCCCCCCCCCCCCCCCNc1nc(NCCCCCCCCCCCC)nc(NCCN2CCOCC2)n1 [Compound N12N16D2] | 0.9% | 0.0% |
| CCCCCCCCCCCCCCSc1nc(NCCCN(C)C)nc(SCCCCCCCCCC)n1 [Compound S10S14D6] | 26.9% | 48.6% |
| CCCCCCCCCCCCCCCCNc1nc(NCCCCCCCCCCC)nc(NCCN(CC)CC)n1 [Compound N11N16D7] | 0.0% | 0.7% |
| CCCCCCCCCCCCCCCCSc1nc(NCCN(CC)CC)nc(SCCCCCCCCCCC)n1 [Compound S11S16D7] | 2.2% | 0.5% |
| CCCCCCCCCCCCCNc1nc(NCCCCCC)nc(NCCN2CCN(C)CC2)n1 [Compound N6N13D5] | 0.0% | 0.0% |
| CCCCCCCCCCCCSc1nc(NCCCN2CCN(C)CC2)nc(SCCCCCCCCCC)n1 [Compound S10S12D9] | 28.1% | 53.7% |
| CCCCCCCNc1nc(NCCCCCCC)nc(NCCCN2CCOCC2)n1 [Compound N7N7D8] | 0.0% | 0.0% |
